In ChEMBL document CHEMBL5380814, “Targeting Receptor-Interacting Protein Kinase 1 by Novel Benzothiazole Derivatives: Treatment of Acute Lung Injury through the Necroptosis Pathway” (J Med Chem, 2023) one finds Activity, inhibition and Kd data, which are given here for one compound.

Assay [1] has as its system Mus musculus. As to the kind of experiment: In vivo anti-necrotoptic activity in NNK induced induced C57BL/6J ALI mouse model assessed as reduction in RIPK1 phosphorylation pretreated at 100 mg/kg, ip for 1 hr followed by NNK administration. It counts as functional. Details: scale not given: the % may be the effect or the level left.
Assay [2] relates to Mus musculus. As to the kind of experiment: In vivo anti-necrotoptic activity in NNK induced induced C57BL/6J ALI mouse model assessed as reduction in RIPK1 phosphorylation pretreated at 25 to 100 mg/kg, ip for 1 hr followed by NNK administration. It counts as functional, organism-based. Particulars: dose 25-100 mg/kg.
Assay [3] has as its target T1, Mixed lineage kinase domain-like protein (Homo sapiens) (UniProt Q8NB16).
T1 sequence (whole entry): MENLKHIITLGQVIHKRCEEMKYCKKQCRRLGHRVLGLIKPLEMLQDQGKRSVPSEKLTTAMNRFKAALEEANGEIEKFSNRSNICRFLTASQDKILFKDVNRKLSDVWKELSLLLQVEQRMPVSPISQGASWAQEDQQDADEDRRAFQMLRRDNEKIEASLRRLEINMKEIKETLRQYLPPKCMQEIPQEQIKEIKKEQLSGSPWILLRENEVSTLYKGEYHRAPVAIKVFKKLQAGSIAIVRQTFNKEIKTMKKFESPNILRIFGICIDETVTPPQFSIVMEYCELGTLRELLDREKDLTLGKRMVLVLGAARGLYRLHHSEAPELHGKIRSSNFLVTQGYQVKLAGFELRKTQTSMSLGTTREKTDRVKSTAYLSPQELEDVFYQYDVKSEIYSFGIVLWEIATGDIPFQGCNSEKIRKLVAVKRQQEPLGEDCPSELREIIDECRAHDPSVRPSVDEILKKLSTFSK
Description: Inhibition of MLKL phosphorylation in TSZ-induced human HT-29 cells assessed as blocking of TSZ-induced necrosome formation at 1 uM pretreated with compound for 0 to 6 hrs followed by TSZ stimulation for 6 hrs measured by Western analysis. The class given is cell-based. Particulars: time 6-12 hrs.

The target in assay [4] is T2, Receptor-interacting serine/threonine-protein kinase 3 (Homo sapiens, UniProt Q9Y572). Description: Inhibition of RIPK3 phosphorylation in TSZ-induced human HT-29 cells assessed as blocking of TSZ-induced necrosome formation at 0.5 uM pretreated with compound for 6 hrs followed by TSZ stimulation for 6 hrs measured by Western analysis. The class given is cell-based. Particulars: time 12.0 hrs.

Assay [5] deals with T1, Mixed lineage kinase domain-like protein (Homo sapiens). Description: Inhibition of MLKLphosphorylation in TSZ-induced human HT-29 cells assessed as blocking of TSZ-induced necrosome formation upto 1 uM pretreated with compound for 6 hrs followed by TSZ stimulation for 6 hrs measured by Western analysis. It counts as cell-based. Particulars: time 12.0 hrs.
For assay [6], the system named is Mus musculus. Description: In vivo anti-inflammatory activity in NNK induced induced C57BL/6J ALI mouse model assessed as decrease in bronchoalveolar lavage fluid (BALF) total protein pretreated intraperitoneally for 1 hr followed by NNK administration. It counts as functional, organism-based. Particulars: dose 25-100 mg/kg, route ip.
For assay [7], the target named is T3, Receptor-interacting serine/threonine-protein kinase 1 (Homo sapiens) (UniProt Q13546).
T3 sequence (whole entry): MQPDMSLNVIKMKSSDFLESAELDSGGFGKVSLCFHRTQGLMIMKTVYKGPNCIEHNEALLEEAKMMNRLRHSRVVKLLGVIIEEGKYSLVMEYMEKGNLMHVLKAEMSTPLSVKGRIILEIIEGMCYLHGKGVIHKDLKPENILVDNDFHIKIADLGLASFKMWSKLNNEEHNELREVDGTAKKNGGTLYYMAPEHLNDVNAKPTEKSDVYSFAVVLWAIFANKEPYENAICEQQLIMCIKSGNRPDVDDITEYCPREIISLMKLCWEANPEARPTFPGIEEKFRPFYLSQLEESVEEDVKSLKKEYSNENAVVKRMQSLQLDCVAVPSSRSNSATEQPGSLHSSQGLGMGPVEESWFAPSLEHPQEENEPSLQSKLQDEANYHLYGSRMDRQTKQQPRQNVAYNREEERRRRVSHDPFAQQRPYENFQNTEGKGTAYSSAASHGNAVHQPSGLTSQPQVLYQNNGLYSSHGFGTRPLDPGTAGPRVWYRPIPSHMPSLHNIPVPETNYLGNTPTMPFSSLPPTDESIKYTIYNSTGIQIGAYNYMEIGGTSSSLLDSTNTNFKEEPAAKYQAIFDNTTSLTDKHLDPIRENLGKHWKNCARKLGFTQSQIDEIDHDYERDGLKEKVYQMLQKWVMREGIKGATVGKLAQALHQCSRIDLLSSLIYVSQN
Description: Inhibition of RIPK1 phosphorylation in TSZ-induced human HT-29 cells assessed as blocking of TSZ-induced necrosome formation at 0.5 uM pretreated with compound for 6 hrs followed by TSZ stimulation for 6 hrs measured by Western analysis. It counts as cell-based. Particulars: time 12.0 hrs.

Assay [8] has as its target T4, Receptor-interacting serine/threonine-protein kinase 1 (Homo sapiens, UniProt Q13546).
T4 sequence (Q13546 whole entry): T3 sequence (whole entry)
Description: Binding affinity to human wildtype full length RIPK1 (M1 to K305 residues) expressed in bacterial expression system assessed as dissociation constant by kinome scan kd select based qPCR analysis. On the technique in general: Real-time PCR tracks product formation cycle by cycle.

Assay [9] concerns Mus musculus. Description: In vivo anti-inflammatory activity in NNK induced induced C57BL/6J ALI mouse model assessed as lung injury score pretreated at 25 mg/kg, ip for 1 hr followed by NNK administration relative to disease model (reference value: 5.7 +/- 0.5). It counts as functional.
In assay [10] the test system is Mus musculus. As to the kind of experiment: In vivo anti-necrotptic activity in mTNFalpha induced C57BL/6J SIRS mouse model assessed as survival rate pretreated at 20 mg/kg, po for 1 hr followed by mTNFalpha/Z-VAD-FMK administration measured after 40 mins relative to control. The class given is functional. Particulars: time 100 min, 1.667 h.
Assay [11] concerns the target T3, Receptor-interacting serine/threonine-protein kinase 1 (Homo sapiens). As to the kind of experiment: Inhibition of RIPK1 phosphorylation in TSZ-induced human HT-29 cells assessed as blocking of TSZ-induced necrosome formation at 1 uM pretreated with compound for 2 to 6 hrs followed by TSZ stimulation for 6 hrs measured by Western analysis. Particulars: time 8-12 hrs. The class given is cell-based.

Assay [12] has as its system Mus musculus. As to the kind of experiment: In vivo anti-inflammatory activity in NNK induced induced C57BL/6J ALI mouse model assessed as less congestion in lung pretreated at 25 to 100 mg/kg, ip for 1 hr followed by NNK administration by HE staining analysis. It counts as functional, organism-based. Particulars: dose 25-100 mg/kg.
Assay [13] relates to Mus musculus. Description: In vivo anti-necrotptic activity in mTNFalpha induced C57BL/6J SIRS mouse model assessed as protection from body temperature loss pretreated at 10 mg/kg, po for 1 hr followed by mTNFalpha/Z-VAD-FMK administration measured after 45 mins by electric thermometer. Particulars: time 105.0 min. The class given is functional, organism-based.
In assay [14] the test system is HT-29. Description: Cytotoxicity against human HT-29 cells incubated at 100 uM for 16 to 24 hrs measured by cell-titre glo luminescent cell viability assay. The class given is functional, cell-based. Particulars: time 16-24 hrs.
Assay [15] has as its system Mus musculus. As to the kind of experiment: In vivo anti-inflammatory activity in NNK induced induced C57BL/6J ALI mouse model assessed as lung injury score pretreated at 50 mg/kg, ip for 1 hr followed by NNK administration relative to disease model (reference value: 5.7 +/- 0.5). It counts as functional.
In assay [16] the target is T2, Receptor-interacting serine/threonine-protein kinase 3. Description: Inhibition of RIPK3 phosphorylation in TSZ-induced human HT-29 cells assessed as blocking of TSZ-induced necrosome formation at 1 uM pretreated with compound for 2 to 6 hrs followed by TSZ stimulation for 6 hrs measured by Western analysis. The class given is cell-based. Particulars: time 8-12 hrs.

Assay [17] has as its system Mus musculus. Description: In vivo anti-inflammatory activity in NNK induced induced C57BL/6J ALI mouse model assessed as decrease in lung IL-6 mRNA level pretreated at 25 to 100 mg/kg, ip for 1 hr followed by NNK administration. Particulars: dose 25-100 mg/kg. It counts as functional, organism-based.

Structures are written as SMILES. Activity calls are given as the source filed them. The calls are words filed in the database; no cut-off is given here.

T2 sequence (Q9Y572 whole entry, looked up): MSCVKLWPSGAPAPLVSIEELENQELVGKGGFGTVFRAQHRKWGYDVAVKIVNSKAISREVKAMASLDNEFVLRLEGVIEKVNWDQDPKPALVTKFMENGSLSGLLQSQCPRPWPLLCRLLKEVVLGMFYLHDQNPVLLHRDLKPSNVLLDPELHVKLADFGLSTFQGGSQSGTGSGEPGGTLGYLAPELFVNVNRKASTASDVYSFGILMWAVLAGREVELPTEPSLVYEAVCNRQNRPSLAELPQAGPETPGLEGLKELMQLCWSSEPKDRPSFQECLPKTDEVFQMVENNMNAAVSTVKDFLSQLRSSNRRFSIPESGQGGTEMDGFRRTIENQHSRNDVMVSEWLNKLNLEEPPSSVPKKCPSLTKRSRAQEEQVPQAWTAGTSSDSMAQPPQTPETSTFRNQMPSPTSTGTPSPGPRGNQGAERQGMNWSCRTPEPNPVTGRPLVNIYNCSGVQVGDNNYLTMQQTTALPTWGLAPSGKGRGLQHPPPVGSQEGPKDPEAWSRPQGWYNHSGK

For the compound `CCS(=O)(=O)NC1CCC(C(=O)Nc2nc3cc(F)c(Oc4ccc(F)c(NC(=O)Cc5cccc(C(F)(F)F)c5)c4)cc3s2)CC1` (configuration not stated), the Activity in [1] was 100%; in assay [6], “Dose-Dependent Effect”; in assay [9], 4.3; in assay [10] it was 100%; in [15], 3.3. In addition, the result in assay [2], in [12], in assay [13], in [14] and in assay [17] was Active. Besides, the inhibition entry in [3], in assay [4], in assay [5], in assay [7], in [11] and in assay [16] was “Active” throughout. Further, the Kd – broadly, the concentration at which binding is half-saturated – in assay [8] came out at 0.085 µM.
